Measured values from patent publication USRE34630E, “Substituted isoquinolines and methods of using same” (Euroceltique, S.A., priority 1992, dated 1994).
Where two headings read alike, the source gives them in different places.

What was measured:
[1] = tested on: rabbit platelets (PAF-induced serotonin release); test: PAF-induced release of tritiated serotonin from rabbit platelets; format: cell-based, rabbit (New Zealand White); conditions: Oryctolagus cuniculus, Platelet; for inhibition at 30 µM: read-out: Platelet Serotonin Release % Inhibition at 30 uM, 30 uM; for IC50: read-out: Platelet Serotonin Release I50
Procedure: (§1) The cellular responses studied include (1) PAF-induced release of preloaded, radiolabeled serotonin from rabbit platelets, (2) PAF-induced degranulation (release of myeloperoxidase) from purified human nuetrophils and (3) PAF-induced adhesion of human neutrophils to latex beads. Each putative antagonist was tested at 30 μM for its effect on each response. Selected compounds were tested in a concentration-response fashion.
Blood is collected from the central ear artery of New Zealand White rabbits into a 1:7 volume of acid citrate dextrose. The blood is centrifuged at 1100 rpm for 20 minutes. The isolated platelet rich plasma (PRP) is then incubated at 37° C. for 30 minutes with 1 μCi^3 H-serotonin binoxalate per ml PRP. Labeled platelets are pelleted by centrifugation at 2800 rpm for 20 minutes. The platelets are then washed in Tyrodes gel buffer without calcium in the presence of 0.1 mM EGTA and again pelleted at 2800 rpm for 20 minutes. This wash process is repeated. The washed platelet pellet is resuspended in Tyrodes gel buffer without calcium and adjusted to a concentration of 1.25×10^9 platelets/ml, as determined from a standard curve of absorbance at 530 num vs platelet concentration.
Polystyrene reaction tubes containing various dilutions of PAF (for standard curve determination) or a single concentration of PAF with and without the subject antagonist in a 0.45 ml volume of Tyrodes gel buffer with calcium each receive a 0.05 ml aliquot of the paltelet preparation. After a 90 second incubation period at room temperature, the reaction is stopped by the addition of 0.02 ml of 9.25 % formaldehyde. The platelets are then pelleted by centrifugation at 2800 rpm for 15 minutes at 4° C.
Aliquots (0.1 ml) of the supernatants are added to 3 ml liquid scintillation fluid in polypropylene vials. The samples are then counted for radioactivity in a liquid scintillation counter. The platelets in one set of reaction tubes containing only buffer and labeled platelets are lysed using 0.01 ml 10% Triton TX, and the total reactivity is determined by liquid scintillation counting. The determined dpm represent the total radioactivity in the labelled platelets. The results for each determination are reported as the percentage release of the total radioactivity in the sample. The extent of PAF antagonist activity is expressed as the percent inhibition of ^3 H-serotonin release compared to that amount released by PAF alone.

[2] = tested on: human neutrophils (PAF-induced degranulation); test: PAF-induced degranulation (myeloperoxidase release) of human neutrophils; format: cell-based; conditions: Neutrophil
Procedure: as §1
Neutrophils are isolated from human venous blood via a two-step sedimentation procedure, and contaminating erythrocytes are selectively lysed. The neutrophils were preincubated in 0.25% Hanks buffer containing bovine serum albumin (BSA) with 5 ug Cytochalasin B/ ml cells for 5 minutes at 37° C. Neutrophils (4×10^6) are added to stimuli (PAF or buffer control) in the presence and absence of antagonist in Krebs-Ringer buffer to a final volume of 1.0 ml, and incubated at 37° C. for appropriate periods of time. At the end of the reaction period the neutrophils are pelleted by centrifugation at 3000 rpm for 5 minutes at 4° C.
Aliquots (0.2 ml) of the supernatants are added to polysyrene tubes to which are added the following: 0.6 ml)>25% Hanks BSA, 0.5 ml MPO buffer (0.2 M NaPO4, pH 6.2) and to start the color reaction 0.2 ml of a 1:1 v/v 0.05% H2 O2 :1.25 mg/ml dimethoxybenzidine (DMB). The reaction is allowed to run at room temperature for 15 minutes and is stopped by the addition of 0.05 ml 2% sodium azide. The developed color is quantitated in a spectrophotometer at 460 nm. The amount of myeloperoxidase (MPO) released by PAF stimulation can thus be determined. In order to determine the total amount of MPO in the cells an unstimulated control tube of neutrophils is lysed using 0.01 ml 10% Triton TX and the total MPO is determined via the color reaction and spectrophotometer reading. The activity of a given concentration of PAF is expressed as the percentage of the total MPO released. The activity of antagonists at a given concentration is expressed as a percentage of inhibition of PAF-induced MPO released at a single concentration of PAF.

[3] = tested on: human neutrophils (PAF-induced bead adhesion); test: PAF-induced adhesion of human neutrophils to latex beads; format: cell-based; conditions: Neutrophil, albumin-coated latex beads
Procedure: as §1
Latex bead suspension (0.6 ml; 10% aqueous suspension; particle diameter=1u) is pipeted into a 1.5 ml eppendorf centrifuge tube. The beads are pelleted by centrifugation, the supernatant is discarded and the beads are washed 2 times with 1 ml 0.9% saline. To the pelleted beads is added 0.5 ml 20 mg/ml human serum albunim (HSA) in Krebs-Ringer buffer.
Allow bed-albumin mixture to sit at room temperature for 10 minutes, centrifuge for 1 minute and remove the supernatant, and wash albumin-coated beads 3 times with saline. Resuspend the beads in 1 ml of Krebs-Ringer.
Human neutrophils are prepared as described for the neutrophil degranulation assay and 10^7 cells are added to 0.3 ml of Krebs-Ringerin the presence and absence of PAF and putative antagonist and are incubated at 37° for an appropriate period of time.
The albumin-coated beads are then added in 0.05 ml to give a final bead concentration of 1% v/v, resulting in a bead to neutrophil ratio of 100:1. The tubes containing cells and beads are then placed in an agitating water bath at 37° C. and 120 oscillation per minute for 10 minutes. The reaction is stopped by adding an equal volume of 2.5% glutaraldehyde in saline. The reaction tubes are allowed to stand at room temperature for 30 minutes. The cells are then washed 3 times (with centrifugation at 1000 rpm for 5 minutes) with saline to remove the unadhered latex beads and resuspended in 0.3 ml saline.
Wet mounts are prepared and adherence is examined by light microscopy at 400x. […] Activity of the antagonists is expressed as the percent inhibition of PAF-induced adherence.

[4] = Stability of free base solution on exposure to air (tlc); format: physicochemical; conditions: 1 h exposure to air
Procedure: 1-(3,4-Dimethoxybenzyl)-6-methyl-3,4-dihydroisoquinoline (D2). Amide D1 (24.7 g, 0.079 mol) and 850 ml of tetrachloroethane was distilled to remove 50 ml of solvent. This solution was added to a solution of 90 g (0.63 mol) of P2 O5 in HMDSO which was heated at 115°. The reaction mixture was heated at 155°-170° for 5 h at which time the reaction appeared complete by tlc. To the cooled reaction mixture was added over 1 h a solution of 100 g of NaOH in 1 l of water under nitrogen with stirring. The organic layer was separated and filtered through a pad of MgSO4. One-half of the tetrachloroethane solution was partially evaporated and […] hydrochloric acid (25 ml) wa added. The resulting mixture was evaporated to dryness. The residue was twice treated with EtOH (100 ml) and evaporated to dryness. The residue was washed with two 100 ml portions of ether and taken up to 100 ml of acetone and evaporated to give a foam. The foam was washed with ethyl acetate (60 ml) and dissolved in 75 ml of i-PrOH, treated with charcoal, filtered and boiled down to 50 ml. The solution deposited 3.4 g of 1-(3,4-dimethoxybenzyl)-6-methyl-3, 4-dihydroisoquinoline hydrochloride after storing overnight at 4°. Dilution of the mother liquor with ethyl acetate and ether gave another 2.9 g to raise the yield to 6.3 g (48% based on one-half of crude product purified).

[5] = tested on: PAF-induced edema; test: PAF-induced edema formation in rabbit skin; format: in vivo; conditions: for % Inhibition of PAF-induced edema: local intradermal, with PAF+PGE2, 30 minutes
Procedure: PAF (10^-9 moles/site) was mixed with […] (a vasodilator, 3×10^-10 moles/site) and injected intradermally in 0.1 ml volumes with six replicates per sample. After 30 minutes a cardiac blood sample was taken and the plasma perpared. The animal was then killed, the dorsal skin removed and injection sites were punched out. Skin samples were counted in a counter together with plasma samples and the amount of plasma leakage in skin sites expressed in terms of 1 μl plasma by comparing the skin radioactivity with that in 1 μl plasma.

SMILES	inhibition at 30 µM ([1]; PAF-induced, rabbit platelets)	IC50 ([1]; PAF-induced, rabbit platelets)	inhibition at 30 µM [2]	inhibition at 30 µM [3]	other results
COc1ccc(CC2=NCCc3cc(C)ccc32)cc1OC [Compound D2, 1-(3,4-Dimethoxybenzyl)-6-methyl-3,4-dihydroisoquinoline]	70%	5.6 µM	17%	23%	Decomposition of free base in solution by tlc [4]: extensive decomposition
CCCCC[C@H](O)/C=C/[C@H]1[C@H](O)CC(=O)[C@@H]1C/C=C\CCCC(=O)O [PGE2, reference compound]	–	–	–	–	Edema formation in rabbit skin (response to agent alone) ([5]; intradermal, alone, compared with saline): not much greater than seen with saline
COc1ccc(C2=NCCc3cc(OCc4ccccc4)ccc32)cc1OC [Compound I2, 1-(3,4-Dimethoxyphenyl)-6-benzyloxy-3,4-dihydroisoquinoline]	100%	12.5 µM	72%	10%	–
COc1cccc(C2=NCCc3cc(C)ccc32)c1 [Compound G2, 1-(3-Methoxyphenyl)-6-methyl-3,4-dihydroisoquinoline]	100%	20 µM	14%	42%	–
COc1ccc(-c2nccc3ccccc23)cc1OC [Compound A3, 1-(3,4-dimethoxyphenyl) isoquinoline]	80%	–	38%	2%	–
COc1ccc(C2=NCCc3cc(C)ccc32)cc1 [Compound H2, 1-(4-Methoxyphenyl)-6-methyl-3,4-dihydroisoquinoline]	100%	18 µM	25%	3%	–
COc1ccc(C2=NCCc3cc(O)ccc32)cc1OC [Compound 12a, 1-(3,4-Dimethoxyphenyl)-6-hydroxy-3,4-dihydroisoquinoline]	12%	–	40%	90%	–
COc1ccc(Cc2nccc3cc(C)ccc23)cc1OC [Compound D3, 1-(3,4-Dimethoxybenzyl)-6-methylisoquinoline]	100%	25 µM	57%	100%	–
COc1cc(-c2nccc3cc(C)ccc23)cc(OC)c1OC [Compound F3, 1-(3,4,5-Trimethoxyphenyl)-6-methylisoquinoline]	89%	–	60%	87%	–
COc1ccc(Cc2nccc3cc(OCc4ccccn4)ccc23)cc1OC [Compound J3a, 1-(3,4-Dimethoxybenzyl)-6-(2-pyridylmethyloxy) isoquinoline]	88%	0.8 µM	70%	12%	% Inhibition of PAF-induced edema ([5]; 10^-7 moles/site): 62%; % Inhibition of PAF-induced edema ([5]; 10^-8 moles/site): 30%; % Inhibition of PAF-induced edema ([5]; 10^-9 moles/site): -7%; % Inhibition of PAF-induced edema ([5]; 10^-10 moles/site): 2%
COc1ccc(C2=NCCc3cc(OCCN(C)C)ccc32)cc1OC [Compound 12b]	0%	–	10%	2%	–
COc1cc(C2=NCCc3cc(C)ccc32)cc(OC)c1OC [Compound F2, 1-(3,4,5-Trimethoxyphenyl)-6-methyl-3,4-dihydroisoquinoline]	48%	–	27%	26%	–
COc1ccc(CCc2nccc3cc(C)ccc23)cc1OC [Compound E3, 1-[2-(3,4-Dimethoxyphenyl)ethyl]-6-methylisoquinoline]	90%	–	77%	9%	–
COc1ccc(CCC2=NCCc3cc(C)ccc32)cc1OC [Compound E2]	92%	–	70%	2%	–
COc1ccc(C2=NCCc3cc(C)ccc32)cc1OC [Compound C2, 1-(3,4-Dimethoxyphenyl)-6-methyl-3,4-dihydroisoquinoline]	–	–	16%	10%	inhibition at 30 µM ([1]; lot 2): 0%; inhibition at 30 µM ([1]; lots 1 & 3): 38%
COc1ccc(C2=NCCc3ccccc32)cc1OC [Compound A2, 1-(3,4-Dimethoxyphenyl)-3,4-dihydroisoquinoline]	48%	–	7%	2%	–
COc1ccc(-c2nccc3cc(C)ccc23)cc1OC [Compound C3, 1-(3,4-dimethoxyphenyl)-6-methylisoquinoline]	100%	–	78%	30%	IC50 ([2]; Homo sapiens, read-out: PAF-Induced Neutrophil Degranulation I50): > 30 µM
